Results on six compounds are retold here after ChEMBL document CHEMBL1123070, “Conformational properties of central nervous system active thyrotropin releasing hormone analogues: probing structure-activity relationships at the molecular level” (1985).

For this experiment, the species on record is Mus musculus. As to the kind of experiment: Relative CNS activity against reserpine hypothermia in mice relatived to TRH. Format: functional, Central nervous system.

With `NC(=O)[C@H]1CCCN1C(=O)[C@H](Cc1c[nH]cn1)NC(=O)c1nc(O)nc(O)c1Br`, the Relative activity was determined as 0.7.
Next, `CCc1c(O)nc(O)nc1C(=O)N[C@@H](Cc1c[nH]cn1)C(=O)N1CCC[C@@H]1C(N)=O`: 0.09.
The compound `CC1SCC(C(=O)N[C@@H](Cc2c[nH]cn2)C(=O)N2CCC[C@@H]2C(N)=O)NC1=O` (stereo partly specified) displayed a Relative activity of 83.
Next, `CCCc1c(O)nc(O)nc1C(=O)N[C@@H](Cc1c[nH]cn1)C(=O)N1CCC[C@@H]1C(N)=O`: 0.8; `C[C@@H]1SCC(C(=O)N[C@@H](Cc2c[nH]cn2)C(=O)N2CCC[C@@H]2C(N)=O)NC1=O` (stereo partly specified): 17; `NC(=O)[C@@H]1CCCN1C(=O)[C@@H](Cc1c[nH]cn1)NC(=O)[C@@H]1CSC(=O)N1`: 0.8.
